{"source": "paper PMC13144739", "about": "“Global analysis of cancer cell responses to USP9X inhibition” (The EMBO Journal, 2026)", "key": {"ACHN cells [1]": {"system": "ACHN cells", "assay": "IncuCyte live-cell imaging cell death, ACHN", "format": "cell-based, human", "details": "10 µM", "experimental": "(§1) Cells were seeded at varying densities (1000–8000 cells per well) after initial optimisation in a 96-well tissue culture-treated plate (Thermo Fisher Scientific). Cells were incubated o/n, and the next day, inhibitors and controls diluted in cell media were added to the cells to a final volume of 200 μL per well. Cell death was measured using PI (Sigma-Aldrich). Cells were imaged with four images per well every 2 h for up to 96 h using the IncuCyte live-cell analysis system (S3, Sartorius). Cell proliferation data were analysed using Microsoft Excel by normalising confluence to control conditions. For cell killing readouts, the number of PI-positive cells was normalised to the control conditions for each timepoint."}, "USP9X": {"system": "T1, USP9X", "T1 construct": "endogenous in cells; host or cells: MCF-7 cell lysate", "assay": "DUB IP-MS in MCF-7 cell lysates, USP9X", "format": "biochemical, human", "details": "50 µM", "experimental": "(§2) MCF-7 cells have been profiled for active DUBs previously (Pinto-Fernández et al, [2019]). Lysates were generated as described by others (Turnbull et al, [2017]) using 30 s freeze-thaw cycles (thrice) in lysis buffer (50 mM Tris [pH 7.4], 5 mM MgCl2 × 6 H2O, 0.5 mM EDTA [pH 8.0], 250 mM sucrose and 1 mM DTT) at pH 7.5. […] A pre-treatment of cell lysates with 0.5 µg Ub-VS was included for a baseline DUB response to the Ub-VS probe. 0.1 µg 3X-FLAG-Ub-VS probe was added to samples and incubated for 5 min at 37 °C. […] Samples were washed thrice with lysis buffer and eluted from the resin with lysis buffer supplemented with 1% (w/v) SDS following a 10 min incubation. Two consecutive elutions were pooled, and samples were stored at −80 °C until processing.\n(§3) DNA was hydrolysed with the addition of 2 µL neat TFA, and lysates were neutralised to pH 8.5 by the addition of 1 M Tris-HCl as previously described (Dagley et al, [2019]). Protein concentration was determined using Pierce™ BCA Protein Assay Kit (Thermo Fisher Scientific) following the manufacturer’s instructions. For DUB IP-MS, samples were processed using S-Trap spin columns (Profiti) by following the manufacturer’s instructions. […]"}, "PANC-1 cells": {"system": "PANC-1 cells", "assay": "Colony formation assay, PANC-1", "format": "cell-based, human", "details": "10 µM, 7–12 days", "experimental": "(§4) Cells were seeded at low density (200–4000 cells per well) after initial optimisation in a six-well tissue culture-treated plate (Falcon). Twenty-four hours post seeding, media was replaced, and the inhibitor was added. Cells were left to grow into colonies between 7 and 12 days, depending on the cell line. For analysis, the media was removed, and the cells were fixed with 10% (w/v) formalin for 10 min. Colonies were stained with crystal violet (Sigma-Aldrich, 0.5% [w/v] in 20% [v/v] MeOH) for 10 min and washed thrice with distilled H2O. Plates were imaged using the ChemiDoc imaging system (Bio-Rad) and analysed using the ImageJ ColonyArea plugin as described previously (Guzmán et al, [2014])."}, "ACHN cells [2]": {"system": "ACHN cells", "assay": "Colony formation assay, ACHN", "format": "cell-based, human", "details": "10 µM, 7–12 days", "experimental": "as §4"}, "USP9X/USP24 chimera": {"target": "T2, USP9X/USP24 chimera (Homo sapiens, UniProt Q93008, A1766S/D1761E/K1759R/L1762V/Y1757F)", "T2 construct": "His/SUMO (pOPIN-S vector) (N, cleaved yes); made in house; host or cells: E. coli BL21", "T2 sequence (Q93008 1551-1970 Y1757F/K1759R/D1761E/L1762V/A1766S)": "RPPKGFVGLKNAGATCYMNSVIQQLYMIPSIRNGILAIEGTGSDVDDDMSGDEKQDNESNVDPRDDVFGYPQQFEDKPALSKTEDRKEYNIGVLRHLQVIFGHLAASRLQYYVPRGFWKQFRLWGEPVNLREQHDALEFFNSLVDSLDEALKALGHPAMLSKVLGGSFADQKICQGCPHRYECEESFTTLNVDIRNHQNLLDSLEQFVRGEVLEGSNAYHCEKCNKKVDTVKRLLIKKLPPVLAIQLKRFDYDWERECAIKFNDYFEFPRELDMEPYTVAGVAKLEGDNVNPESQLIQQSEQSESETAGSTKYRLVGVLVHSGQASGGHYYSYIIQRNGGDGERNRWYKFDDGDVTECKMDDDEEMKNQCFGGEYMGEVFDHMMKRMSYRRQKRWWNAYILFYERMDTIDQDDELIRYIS", "assay": "Ub-Rho cleavage assay, USP9X/USP24 chimera", "format": "biochemical", "source_text": "An expression construct for the USP9X catalytic domain (aa 1551–1970, […]: Q93008-1), was codon optimised for bacterial expression, synthesised in gBlock format (Integrated DNA Technologies) and cloned into the pOPIN-S vector (Berrow et al, [2007]), which was digested with KpnI and HindIII using In-Fusion™ HD cloning (Takara Clontech). […] For the USP9X Δβ catalytic domain a deletion construct ΔE1924-K1943 and for USP9X/USP24 chimera, a construct with USP9X Y1757-A1766 replaced with the USP24 (NCBI Reference Sequence: NP_056121) aa motif […] was used. All constructs were confirmed by Sanger sequencing (AGRF).\nThe reaction was stopped through the addition of 10 mM citric acid. The assay was performed in 384-well format with a total reaction volume of 16 µL. Data was collected using the ClarioSTAR plate reader (BMG Labtech) at an emission of 535 nm. […] IC50 values presented in our study are the mean of three independent biological repeats unless indicated otherwise."}, "MDA-MB-231 cells": {"system": "MDA-MB-231 cells", "assay": "Lattice light sheet imaging of mitosis, MDA-MB-231", "format": "cell-based, human", "details": "15 µM", "experimental": "MDA-MB-231, MiaPaca2, HMEC-1, SK-MEL-2 and UO-31 cells were seeded at 2–15 × 10^4 cells/mL in 8-well glass µ-slides (ibidi). […] SPY650-Tubulin, SPY555-DNA (both Spirochrome, Inc.), and Annexin V FITC (Sigma-Aldrich) were added at a final concentration of 1 in 1000. Cells were left to grow for 24 h before time-lapse live-cell data were acquired using a Lattice Light Sheet 7 (Zeiss). […] Aberration correction was set to a value of 170 to minimise aberrations as determined by imaging the Point Spread Function using 100 nm fluorescent microspheres. Data were collected with a frame time of 10 ms and a z step of 0.4 μm with 834 frames per 290 μm by 290 μm. Individual regions were imaged in parallel across six wells of the eight-well chamber slide. Data are presented as Maximum Intensity Projections (MIPs), and these MIPs were used for all downstream analysis. Tile regions were imaged for 24 h with 10 min intervals at 37 °C, 5% CO2. Analysis was performed using the MIPs of the different full fields of cells over the 24–48 h time period. Mitosis and mitosis arrest were classified through a combination of automated image analysis and manual validation. […] Small erroneous detected spots were further removed through a manually adjusted size filter. […] The mean intensity of all tracks was then measured to determine mitosis and mitosis arrest. […]"}, "HUVECs": {"system": "HUVECs", "assay": "IncuCyte live-cell imaging, HUVEC", "format": "cell-based", "experimental": "as §1"}, "USP24": {"system": "T3, USP24", "T3 construct": "endogenous in cells; host or cells: MCF-7 cell lysate", "assay": "DUB IP-MS in MCF-7 cell lysates, USP24", "format": "biochemical, human", "details": "50 µM", "experimental": "as §2, §3"}}, "note": "“Also recorded” adds a separate entry of the source."}
{"compound": "Cc1[nH]c2ccc(C(=O)N3CCN(S(=O)(=O)c4ccc5c(c4)OCCO5)CC3)cc2c1C", "note": "[WEHI-092]", "values": [{"measurement": "response of ACHN cells (cell death)", "setting": "ACHN cells [1]", "value": "limited response"}, {"measurement": "inhibition of USP9X in MCF-7 lysate (DUB IP-MS)", "setting": "USP9X", "value": "inhibited all active USP9X in the lysate"}, {"measurement": "clonogenic potential, PANC-1", "setting": "PANC-1 cells", "value": "strong decrease in proliferative capacity"}, {"measurement": "clonogenic potential, ACHN", "setting": "ACHN cells [2]", "value": "apparent increase in cell proliferation"}, {"measurement": "activity of USP9X/USP24 chimera in presence of compound", "setting": "USP9X/USP24 chimera", "value": "remained fully active at concentrations up to 10 µM; also recorded: no longer inhibited"}, {"measurement": "apoptosis on metaphase arrest (Annexin V uptake), MDA-MB-231", "setting": "MDA-MB-231 cells", "value": "did not trigger apoptosis"}, {"measurement": "cell division phenotype, MDA-MB-231", "setting": "MDA-MB-231 cells; imaged 24-48 h", "value": "significant defects in cell division"}, {"measurement": "toxicity to HUVECs", "setting": "HUVECs", "value": "non-lethal and non-toxic"}, {"measurement": "inhibition of USP24 in cell lysates (DUB IP-MS)", "setting": "USP24", "value": "not inhibited"}]}
